Key:
B2 bradykinin receptor = biological target: T1, B2 bradykinin receptor (Rattus norvegicus, UniProt P25023); experiment: In vitro binding affinity against Bradykinin receptor B2 in rat NG 108-15 neuroblastoma-glioma hybrid cell membranes using [3H]BK binding assay
T1 sequence (P25023 whole entry): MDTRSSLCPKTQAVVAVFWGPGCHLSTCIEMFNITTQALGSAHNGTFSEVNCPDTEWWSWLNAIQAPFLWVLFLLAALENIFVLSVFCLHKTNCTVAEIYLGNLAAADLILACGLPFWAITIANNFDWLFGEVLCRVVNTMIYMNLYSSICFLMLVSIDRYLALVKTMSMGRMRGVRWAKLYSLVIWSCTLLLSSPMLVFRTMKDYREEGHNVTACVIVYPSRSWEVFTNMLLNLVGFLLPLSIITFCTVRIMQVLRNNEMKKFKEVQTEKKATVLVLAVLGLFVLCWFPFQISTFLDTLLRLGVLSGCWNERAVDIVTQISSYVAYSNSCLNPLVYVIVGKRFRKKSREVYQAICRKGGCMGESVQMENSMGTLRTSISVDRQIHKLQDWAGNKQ

[1] = biological target: T2, Gastrin/cholecystokinin type B receptor (Mus musculus, UniProt P56481); experiment: In vitro binding affinity against Cholecystokinin type B receptor in mouse cerebral cortical membranes using [125I]Tyr(SO3H)27]-CCK-8 binding assay; format: cell membranes
T2 sequence (P56481 whole entry): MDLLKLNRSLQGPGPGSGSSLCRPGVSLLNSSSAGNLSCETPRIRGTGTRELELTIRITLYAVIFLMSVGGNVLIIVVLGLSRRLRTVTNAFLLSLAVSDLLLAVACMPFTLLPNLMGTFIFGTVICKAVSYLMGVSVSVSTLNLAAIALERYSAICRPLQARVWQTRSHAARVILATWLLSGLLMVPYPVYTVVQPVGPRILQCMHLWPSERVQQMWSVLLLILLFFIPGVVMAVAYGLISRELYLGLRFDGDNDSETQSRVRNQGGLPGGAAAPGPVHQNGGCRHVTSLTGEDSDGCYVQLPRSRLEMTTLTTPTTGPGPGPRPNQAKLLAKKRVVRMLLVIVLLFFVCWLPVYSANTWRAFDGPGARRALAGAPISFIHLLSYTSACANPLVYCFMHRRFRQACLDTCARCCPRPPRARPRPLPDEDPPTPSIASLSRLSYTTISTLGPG

Substance-P receptor [2] = biological target: Substance-P receptor (Cavia porcellus, UniProt P30547); experiment: In vitro binding affinity against Tachykinin receptor 1 in guinea pig ileum using organ bath assay; format: tissue-based
Chain of Substance-P receptor (Cavia porcellus, UniProt P30547) (P30547 whole entry): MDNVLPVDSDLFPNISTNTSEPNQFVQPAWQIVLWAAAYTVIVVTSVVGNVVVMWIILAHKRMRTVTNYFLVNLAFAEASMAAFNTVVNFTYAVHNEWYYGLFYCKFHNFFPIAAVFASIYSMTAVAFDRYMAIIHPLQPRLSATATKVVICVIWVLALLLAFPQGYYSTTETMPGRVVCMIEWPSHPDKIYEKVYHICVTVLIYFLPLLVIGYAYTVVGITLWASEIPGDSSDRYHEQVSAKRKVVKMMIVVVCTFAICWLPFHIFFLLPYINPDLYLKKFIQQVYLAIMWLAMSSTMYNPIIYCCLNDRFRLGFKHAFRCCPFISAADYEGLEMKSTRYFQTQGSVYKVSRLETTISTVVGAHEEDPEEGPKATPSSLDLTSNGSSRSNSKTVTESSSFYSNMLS

Substance-P receptor [3] = biological target: Substance-P receptor (Rattus norvegicus, UniProt P14600); experiment: In vitro binding affinity against Tachykinin receptor 1 in rat whole forebrain membranes using [3H][Sar9Met(O2)]-SP binding assay; format: cell membranes, Membrane
Chain of Substance-P receptor (Rattus norvegicus, UniProt P14600) (P14600 whole entry): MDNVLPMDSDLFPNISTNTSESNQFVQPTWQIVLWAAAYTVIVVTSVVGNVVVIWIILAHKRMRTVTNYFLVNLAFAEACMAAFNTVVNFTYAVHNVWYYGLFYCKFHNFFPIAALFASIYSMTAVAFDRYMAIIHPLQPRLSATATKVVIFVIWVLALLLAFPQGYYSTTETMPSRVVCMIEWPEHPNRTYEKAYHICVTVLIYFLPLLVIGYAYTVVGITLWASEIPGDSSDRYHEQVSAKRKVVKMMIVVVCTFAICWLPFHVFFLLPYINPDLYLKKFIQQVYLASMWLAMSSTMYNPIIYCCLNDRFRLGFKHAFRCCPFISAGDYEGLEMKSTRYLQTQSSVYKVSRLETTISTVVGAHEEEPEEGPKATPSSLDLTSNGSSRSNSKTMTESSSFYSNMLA

SMILES	IC50 (B2 bradykinin receptor)	IC50 [1]	IC50 (Substance-P receptor [2])	IC50 (Substance-P receptor [3])
O=C(O)CCCN(Cc1ccccc1)S(=O)(=O)c1ccc(N/N=C(/S)NCCc2c[nH]c3ccccc23)c([N+](=O)[O-])c1	> 100 µM	2.43 µM	–	–
CSCCNS(=O)(=O)c1ccc(N/N=C(\S)N2CCC[C@H]2C(=O)NC(c2ccccc2)c2ccccc2)c([N+](=O)[O-])c1	> 100 µM	–	0.98 µM	–
O=C(O)CN(Cc1ccccc1)S(=O)(=O)c1ccc(NNC(=S)NCCc2c[nH]c3ccccc23)c([N+](=O)[O-])c1	> 100 µM	1.8 µM	–	–
O=C(O)c1ccccc1NS(=O)(=O)c1ccc(N/N=C(/S)NCCc2c[nH]c3ccccc23)c([N+](=O)[O-])c1	> 100 µM	4.5 µM	–	–
O=C(O)CN(Cc1ccccc1)S(=O)(=O)c1ccc(N/N=C(/S)NC(c2ccccc2)c2ccccc2)c([N+](=O)[O-])c1	0.41 µM	1.9 µM	–	–
O=C(O)c1cccc(NS(=O)(=O)c2ccc(NNC(=S)NCCc3c[nH]c4ccccc34)c([N+](=O)[O-])c2)c1	> 100 µM	3.6 µM	–	–
O=C(NC(c1ccccc1)c1ccccc1)[C@@H]1CCCN1/C(S)=N/Nc1ccccc1[N+](=O)[O-]	> 100 µM	–	1.67 µM	> 100 µM
O=C(O)CCCNS(=O)(=O)c1ccc(N/N=C(/S)NCCc2c[nH]c3ccccc23)c([N+](=O)[O-])c1	> 100 µM	11 µM	–	–
CSCCNS(=O)(=O)c1ccc(N/N=C(\S)N2CCC[C@H]2C(=O)NCc2ccccc2)c([N+](=O)[O-])c1	> 100 µM	–	–	> 100 µM
O=C(O)c1ccc(NC(=S)NNc2ccc(S(=O)(=O)NCCc3c[nH]c4ccccc34)cc2[N+](=O)[O-])cc1	> 100 µM	24 µM	–	–
O=C(O)c1ccc(NS(=O)(=O)c2ccc(N/N=C(/S)NCCc3c[nH]c4ccccc34)c([N+](=O)[O-])c2)cc1	> 100 µM	10 µM	–	–
O=C(O)CN(CCc1ccccc1)S(=O)(=O)c1ccc(N/N=C(/S)NCCc2c[nH]c3ccccc23)c([N+](=O)[O-])c1	> 100 µM	6 µM	–	–
O=C(O)CCN(Cc1ccccc1)S(=O)(=O)c1ccc(NNC(=S)NCCc2c[nH]c3ccccc23)c([N+](=O)[O-])c1	> 100 µM	0.51 µM	–	–
CSCCNS(=O)(=O)c1ccc(N/N=C(\S)N2CCC[C@@H]2C(=O)NCc2ccccc2)c([N+](=O)[O-])c1	> 100 µM	–	–	> 100 µM
O=C(O)CN(CCCc1ccccc1)S(=O)(=O)c1ccc(N/N=C(/S)NCCc2c[nH]c3ccccc23)c([N+](=O)[O-])c1	> 100 µM	6 µM	–	–
O=C(NC(c1ccccc1)c1ccccc1)[C@H]1CCCN1/C(S)=N/Nc1ccccc1[N+](=O)[O-]	> 100 µM	–	2.31 µM	> 100 µM
O=C(O)CNS(=O)(=O)c1ccc(NNC(=S)NCCc2c[nH]c3ccccc23)c([N+](=O)[O-])c1	> 100 µM	46 µM	–	–
O=C(O)c1cccc(N(Cc2ccccc2)S(=O)(=O)c2ccc(NNC(=S)NCCc3c[nH]c4ccccc34)c([N+](=O)[O-])c2)c1	> 100 µM	4 µM	–	–
COc1ccccc1CN[C@H]1CCCN[C@H]1c1ccccc1 [CP-99994]	–	–	0.0029 µM	–
O=C(O)c1cccc(NC(=S)NNc2ccc(S(=O)(=O)NCCc3c[nH]c4ccccc34)cc2[N+](=O)[O-])c1	> 100 µM	31 µM	–	–
O=C(O)CCNS(=O)(=O)c1ccc(N/N=C(/S)NCCc2c[nH]c3ccccc23)c([N+](=O)[O-])c1	> 100 µM	24 µM	–	–
CSCCNS(=O)(=O)c1ccc(N/N=C(\S)N2CCC[C@@H]2C(=O)NC(c2ccccc2)c2ccccc2)c([N+](=O)[O-])c1	> 100 µM	–	7.93 µM	–
